Assay results taken from PubChem BioAssay AID1963968 (Molecular Pharmacology Branch, DTP, NCI, 2024).

System: 945468-187-T-J3-PDC spheroids with HUVEC/MSC, viability
Assay: Anticancer human tumor 945468-187-T-J3-PDC patient-derived rectal carcinoma cell line growth inhibition [PI3K]
Details: for IC50: curve of first compound; for viability, T/C: stronger effect = lower value
Outline: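 Viability of mixed-cell spheroids was determined after exposure to pairwise combinations, one partner being inavolisib, alpelisib, duvelisib or copanlisib. Highest tested concentration matched clinical Cmax where known and 10 microM where not, descending in half-log steps.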

[1] = second compound 0.0316 µM, first compound 0.0316 µM
[2] = second compound 0.0316 µM, first compound 0.1 µM
[3] = second compound 0.0316 µM, first compound 0.316 µM
[4] = second compound 0.0316 µM, first compound 1 µM
[5] = second compound 0.0316 µM, first compound 3.16 µM
[6] = second compound 0.0316 µM, first compound 10 µM
[7] = second compound 0.1 µM, first compound 0.0316 µM
[8] = second compound 0.1 µM, first compound 0.1 µM
[9] = second compound 0.1 µM, first compound 0.316 µM
[10] = second compound 0.1 µM, first compound 1 µM
[11] = second compound 0.1 µM, first compound 3.16 µM
[12] = second compound 0.1 µM, first compound 10 µM
[13] = second compound 0.316 µM, first compound 0.0316 µM
[14] = second compound 0.316 µM, first compound 0.1 µM
[15] = second compound 0.316 µM, first compound 0.316 µM
[16] = second compound 0.316 µM, first compound 1 µM
[17] = second compound 0.316 µM, first compound 3.16 µM
[18] = second compound 0.316 µM, first compound 10 µM
[19] = second compound 1 µM, first compound 0.0316 µM
[20] = second compound 1 µM, first compound 0.1 µM
[21] = second compound 1 µM, first compound 0.316 µM
[22] = second compound 1 µM, first compound 1 µM
[23] = second compound 1 µM, first compound 3.16 µM
[24] = second compound 1 µM, first compound 10 µM
[25] = second compound 3.16 µM, first compound 0.0316 µM
[26] = second compound 3.16 µM, first compound 0.1 µM
[27] = second compound 3.16 µM, first compound 0.316 µM
[28] = second compound 3.16 µM, first compound 1 µM
[29] = second compound 3.16 µM, first compound 3.16 µM
[30] = second compound 3.16 µM, first compound 10 µM
[31] = second compound 10 µM, first compound 0.0316 µM
[32] = second compound 10 µM, first compound 0.1 µM
[33] = second compound 10 µM, first compound 0.316 µM
[34] = second compound 10 µM, first compound 1 µM
[35] = second compound 10 µM, first compound 3.16 µM
[36] = second compound 10 µM, first compound 10 µM
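Further: spheroids exposed to agents for 7 days before viability read.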
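Wherever viability, T/C is given: 100% = DMSO vehicle control viability.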

## C#Cc1c(F)ccc2cc(O)cc(-c3ncc4c(N5CC6CCC(C5)N6)nc(OCC56CCCN5CC(F)C6)nc4c3F)c12 (stereo not drawn) + CC(Nc1ncnc2nc[nH]c12)c1cc2cccc(Cl)c2c(=O)n1-c1ccccc1
Second compound 0.0316 µM
  IC50: > 10 µM
Second compound 0.1 µM
  IC50: > 10 µM
Second compound 0.316 µM
  IC50: > 10 µM
Second compound 1 µM
  IC50: > 10 µM
Second compound 3.16 µM
  IC50: > 10 µM
Second compound 10 µM
  IC50: > 10 µM
[1]
  viability, T/C: 91.2%
[2]
  viability, T/C: 93%
[3]
  viability, T/C: 103%
[4]
  viability, T/C: 110%
[5]
  viability, T/C: 113%
[6]
  viability, T/C: 101%
[7]
  viability, T/C: 101%
[8]
  viability, T/C: 105%
[9]
  viability, T/C: 99.8%
[10]
  viability, T/C: 103%
[11]
  viability, T/C: 115%
[12]
  viability, T/C: 101%
[13]
  viability, T/C: 100%
[14]
  viability, T/C: 97.4%
[15]
  viability, T/C: 103%
[16]
  viability, T/C: 107%
[17]
  viability, T/C: 117%
[18]
  viability, T/C: 104%
[19]
  viability, T/C: 100%
[20]
  viability, T/C: 95.2%
[21]
  viability, T/C: 96.8%
[22]
  viability, T/C: 111%
[23]
  viability, T/C: 111%
[24]
  viability, T/C: 97.9%
[25]
  viability, T/C: 102%
[26]
  viability, T/C: 105%
[27]
  viability, T/C: 106%
[28]
  viability, T/C: 99.8%
[29]
  viability, T/C: 110%
[30]
  viability, T/C: 101%
[31]
  viability, T/C: 100%
[32]
  viability, T/C: 99.5%
[33]
  viability, T/C: 111%
[34]
  viability, T/C: 126%
[35]
  viability, T/C: 121%
[36]
  viability, T/C: 92.5%

## CC(Cn1ccc(-c2ccc(C#N)c(Cl)c2)n1)NC(=O)c1cc(C(C)O)[nH]n1 (stereo not drawn) + CC(Nc1ncnc2nc[nH]c12)c1cc2cccc(Cl)c2c(=O)n1-c1ccccc1
Second compound 0.0316 µM
  IC50: > 10 µM
Second compound 0.1 µM
  IC50: > 10 µM
Second compound 0.316 µM
  IC50: > 10 µM
Second compound 1 µM
  IC50: > 10 µM
Second compound 3.16 µM
  IC50: > 10 µM
Second compound 10 µM
  IC50: > 10 µM
[1]
  viability, T/C: 93.4%
[2]
  viability, T/C: 104%
[3]
  viability, T/C: 126%
[4]
  viability, T/C: 91.3%
[5]
  viability, T/C: 125%
[6]
  viability, T/C: 94%
[7]
  viability, T/C: 91.1%
[8]
  viability, T/C: 95.5%
[9]
  viability, T/C: 89.5%
[10]
  viability, T/C: 91.4%
[11]
  viability, T/C: 114%
[12]
  viability, T/C: 105%
[13]
  viability, T/C: 95.5%
[14]
  viability, T/C: 100%
[15]
  viability, T/C: 118%
[16]
  viability, T/C: 97.9%
[17]
  viability, T/C: 101%
[18]
  viability, T/C: 106%
[19]
  viability, T/C: 87.8%
[20]
  viability, T/C: 108%
[21]
  viability, T/C: 98.1%
[22]
  viability, T/C: 93%
[23]
  viability, T/C: 104%
[24]
  viability, T/C: 94.8%
[25]
  viability, T/C: 94.8%
[26]
  viability, T/C: 102%
[27]
  viability, T/C: 96.5%
[28]
  viability, T/C: 112%
[29]
  viability, T/C: 113%
[30]
  viability, T/C: 110%
[31]
  viability, T/C: 122%
[32]
  viability, T/C: 99.1%
[33]
  viability, T/C: 98.2%
[34]
  viability, T/C: 96.7%
[35]
  viability, T/C: 104%
[36]
  viability, T/C: 91.2%

## CC1(C)CCC(Nc2ncc(C(F)(F)F)c(-c3c[nH]c4c(P(C)(C)=O)c(C#N)ccc34)n2)CN1 (stereo not drawn) + CC(Nc1ncnc2nc[nH]c12)c1cc2cccc(Cl)c2c(=O)n1-c1ccccc1
Second compound 0.0316 µM
  IC50: 4.49 µM
Second compound 0.1 µM
  IC50: 4.55 µM
Second compound 0.316 µM
  IC50: 4.74 µM
Second compound 1 µM
  IC50: 4.69 µM
Second compound 3.16 µM
  IC50: 4.74 µM
Second compound 10 µM
  IC50: 4.74 µM
[1]
  viability, T/C: 65.5%
[2]
  viability, T/C: 64.1%
[3]
  viability, T/C: 58.2%
[4]
  viability, T/C: 68.1%
[5]
  viability, T/C: 75.1%
[6]
  viability, T/C: 12.9%
[7]
  viability, T/C: 67.7%
[8]
  viability, T/C: 59.8%
[9]
  viability, T/C: 54.9%
[10]
  viability, T/C: 72%
[11]
  viability, T/C: 73%
[12]
  viability, T/C: 16.6%
[13]
  viability, T/C: 68.2%
[14]
  viability, T/C: 67.4%
[15]
  viability, T/C: 55.8%
[16]
  viability, T/C: 66.2%
[17]
  viability, T/C: 86.7%
[18]
  viability, T/C: 15.2%
[19]
  viability, T/C: 79.9%
[20]
  viability, T/C: 62.4%
[21]
  viability, T/C: 56.6%
[22]
  viability, T/C: 67.5%
[23]
  viability, T/C: 78.9%
[24]
  viability, T/C: 13.4%
[25]
  viability, T/C: 73.8%
[26]
  viability, T/C: 64.3%
[27]
  viability, T/C: 59%
[28]
  viability, T/C: 66.6%
[29]
  viability, T/C: 79.4%
[30]
  viability, T/C: 15.7%
[31]
  viability, T/C: 78.9%
[32]
  viability, T/C: 66.1%
[33]
  viability, T/C: 77.9%
[34]
  viability, T/C: 58.9%
[35]
  viability, T/C: 81.4%
[36]
  viability, T/C: 7.98%

## Cn1cnc2c(F)c(Nc3ccc(Br)cc3Cl)c(C(=O)NOCCO)cc21 + COc1c(OCCCN2CCOCC2)ccc2c3n(c(=NC(=O)c4cnc(N)nc4)nc12)CCN3
Second compound 0.00316 µM
  IC50: > 3 µM
Second compound 0.01 µM
  IC50: 1.25 µM
Second compound 0.0316 µM
  IC50: 0.154 µM
Second compound 0.1 µM
  IC50: < 0.00949 µM
Second compound 0.316 µM
  IC50: < 0.00949 µM
Second compound 1 µM
  IC50: < 0.00949 µM
Second compound 0.00316 µM, first compound 0.00949 µM
  viability, T/C: 103%
Second compound 0.00316 µM, first compound 0.03 µM
  viability, T/C: 99.9%
Second compound 0.00316 µM, first compound 0.0949 µM
  viability, T/C: 103%
Second compound 0.00316 µM, first compound 0.3 µM
  viability, T/C: 91.7%
Second compound 0.00316 µM, first compound 0.949 µM
  viability, T/C: 91.8%
Second compound 0.00316 µM, first compound 3 µM
  viability, T/C: 68%
Second compound 0.01 µM, first compound 0.00949 µM
  viability, T/C: 96.1%
Second compound 0.01 µM, first compound 0.03 µM
  viability, T/C: 103%
Second compound 0.01 µM, first compound 0.0949 µM
  viability, T/C: 89.8%
Second compound 0.01 µM, first compound 0.3 µM
  viability, T/C: 80.7%
Second compound 0.01 µM, first compound 0.949 µM
  viability, T/C: 56.4%
Second compound 0.01 µM, first compound 3 µM
  viability, T/C: 29.9%
Second compound 0.0316 µM, first compound 0.00949 µM
  viability, T/C: 93.5%
Second compound 0.0316 µM, first compound 0.03 µM
  viability, T/C: 67.4%
Second compound 0.0316 µM, first compound 0.0949 µM
  viability, T/C: 64.3%
Second compound 0.0316 µM, first compound 0.3 µM
  viability, T/C: 36.4%
Second compound 0.0316 µM, first compound 0.949 µM
  viability, T/C: 27.8%
Second compound 0.0316 µM, first compound 3 µM
  viability, T/C: 13.7%
Second compound 0.1 µM, first compound 0.00949 µM
  viability, T/C: 42.2%
Second compound 0.1 µM, first compound 0.03 µM
  viability, T/C: 33.9%
Second compound 0.1 µM, first compound 0.0949 µM
  viability, T/C: 27.4%
Second compound 0.1 µM, first compound 0.3 µM
  viability, T/C: 14.7%
Second compound 0.1 µM, first compound 0.949 µM
  viability, T/C: 9.64%
Second compound 0.1 µM, first compound 3 µM
  viability, T/C: 3.84%
Second compound 0.316 µM, first compound 0.00949 µM
  viability, T/C: 17.5%
Second compound 0.316 µM, first compound 0.03 µM
  viability, T/C: 18.3%
Second compound 0.316 µM, first compound 0.0949 µM
  viability, T/C: 10%
Second compound 0.316 µM, first compound 0.3 µM
  viability, T/C: 8.2%
Second compound 0.316 µM, first compound 0.949 µM
  viability, T/C: 3.92%
Second compound 0.316 µM, first compound 3 µM
  viability, T/C: 1.13%
Second compound 1 µM, first compound 0.00949 µM
  viability, T/C: 13.6%
Second compound 1 µM, first compound 0.03 µM
  viability, T/C: 8.89%
Second compound 1 µM, first compound 0.0949 µM
  viability, T/C: 7.97%
Second compound 1 µM, first compound 0.3 µM
  viability, T/C: 4.92%
Second compound 1 µM, first compound 0.949 µM
  viability, T/C: 4.14%
Second compound 1 µM, first compound 3 µM
  viability, T/C: 1.82%
